Measured values published in patent publication US12319640B2, “Cyclic diones as herbicidal compounds” (SYNGENTA CROP PROTECTION AG, priority 2019, dated 2025).

What was measured:
Experiment in all cases: Glasshouse herbicide test, pre- and post-emergence
Format in all cases: in vivo
[1] = test system: Alopecurus myosuroides (ALOMY); details: 250 g/h, evaluated after 13 days, five-point scale; for percentage damage caused to the plant, ALOMY POST: post-emergence; for percentage damage caused to the plant, ALOMY PRE: pre-emergence
Description: (§1) Seeds of a variety of test species are sown in standard soil in pots (Lolium perenne (LOLPE), Setaria faberi (SETFA), Alopecurus myosuroides (ALOMY), Echinochloa crus-galli (ECHCG), Avena fatua (AVEFA)). After cultivation for one day (pre-emergence) or after 8 days cultivation (post-emergence) under controlled conditions in a glasshouse (at 24/16° C., day/night; 14 hours light; 65% humidity), the plants are sprayed with an aqueous spray solution derived from the formulation of the technical active ingredient in acetone/water (50:50) solution containing 0.5% Tween 20 (polyoxyethelyene sorbitan monolaurate, CAS RN 9005-64-5). Compounds are applied at 250 g/h. The test plants are then grown in a glasshouse under controlled conditions in a glasshouse (at 24/16° C., day/night; 14 hours light; 65% humidity) and watered twice daily. After 13 days for pre and post-emergence, the test is evaluated for the percentage damage caused to the plant. The biological activities are shown in the following table on a five-point scale (5=80-100%; 4=60-79%; 3=40-59%; 2=20-39%; 1=0-19%).

Avena fatua (AVEFA) = details: 250 g/h, evaluated after 13 days, five-point scale; for percentage damage caused to the plant, AVEFA POST: post-emergence; for percentage damage caused to the plant, AVEFA PRE: pre-emergence
Description: as §1

[2] = test system: Echinochloa crus-galli (ECHCG); details: 250 g/h, evaluated after 13 days, five-point scale; for percentage damage caused to the plant, ECHCG POST: post-emergence; for percentage damage caused to the plant, ECHCG PRE: pre-emergence
Description: as §1

Lolium perenne (LOLPE) = details: 250 g/h, evaluated after 13 days, five-point scale; for percentage damage caused to the plant, LOLPE POST: post-emergence; for percentage damage caused to the plant, LOLPE PRE: pre-emergence
Description: as §1

Setaria faberi (SETFA) = details: 250 g/h, evaluated after 13 days, five-point scale; for percentage damage caused to the plant, SETFA POST: post-emergence; for percentage damage caused to the plant, SETFA PRE: pre-emergence
Description: as §1

CC#Cc1cc(C)c(C2C(=O)CC3(CCC(C(=O)N(C)C)CC3)CC2=O)c(C)c1 (centres unmarked) [Compound 1.001]
percentage damage caused to the plant, ALOMY POST [1]: 5 (5=80-100%)
percentage damage caused to the plant, ALOMY PRE [1]: 5 (5=80-100%)
percentage damage caused to the plant, AVEFA POST (Avena fatua (AVEFA)): 5 (5=80-100%)
percentage damage caused to the plant, AVEFA PRE (Avena fatua (AVEFA)): 5 (5=80-100%)
percentage damage caused to the plant, ECHCG POST [2]: 5 (5=80-100%)
percentage damage caused to the plant, ECHCG PRE [2]: 5 (5=80-100%)
percentage damage caused to the plant, LOLPE POST (Lolium perenne (LOLPE)): 5 (5=80-100%)
percentage damage caused to the plant, LOLPE PRE (Lolium perenne (LOLPE)): 5 (5=80-100%)
percentage damage caused to the plant, SETFA POST (Setaria faberi (SETFA)): 5 (5=80-100%)
percentage damage caused to the plant, SETFA PRE (Setaria faberi (SETFA)): 5 (5=80-100%)

CC#Cc1cc(C)c(C2C(=O)CC3(CCC(C(=O)NC)CC3)CC2=O)c(C)c1 (centres unmarked) [Compound 1.002, 3-(2,6-dimethyl-4-prop-1-ynyl-phenyl)-N-methyl-2,4-dioxo-spiro[5.5]undecane-9-carboxamide]
percentage damage caused to the plant, ALOMY POST [1]: 5 (5=80-100%)
percentage damage caused to the plant, ALOMY PRE [1]: 5 (5=80-100%)
percentage damage caused to the plant, AVEFA POST (Avena fatua (AVEFA)): 5 (5=80-100%)
percentage damage caused to the plant, AVEFA PRE (Avena fatua (AVEFA)): 5 (5=80-100%)
percentage damage caused to the plant, ECHCG POST [2]: 5 (5=80-100%)
percentage damage caused to the plant, ECHCG PRE [2]: 5 (5=80-100%)
percentage damage caused to the plant, LOLPE POST (Lolium perenne (LOLPE)): 5 (5=80-100%)
percentage damage caused to the plant, LOLPE PRE (Lolium perenne (LOLPE)): 5 (5=80-100%)
percentage damage caused to the plant, SETFA POST (Setaria faberi (SETFA)): 5 (5=80-100%)
percentage damage caused to the plant, SETFA PRE (Setaria faberi (SETFA)): 5 (5=80-100%)

CC#Cc1cc(C)c(C2C(=O)CC3(CCC(C(=O)NC(=O)c4ccccn4)CC3)CC2=O)c(C)c1 (centres unmarked) [Compound 1.003]
percentage damage caused to the plant, ALOMY POST [1]: 5 (5=80-100%)
percentage damage caused to the plant, ALOMY PRE [1]: 4 (4=60-79%)
percentage damage caused to the plant, AVEFA POST (Avena fatua (AVEFA)): 5 (5=80-100%)
percentage damage caused to the plant, AVEFA PRE (Avena fatua (AVEFA)): 4 (4=60-79%)
percentage damage caused to the plant, ECHCG POST [2]: 5 (5=80-100%)
percentage damage caused to the plant, ECHCG PRE [2]: 5 (5=80-100%)
percentage damage caused to the plant, LOLPE POST (Lolium perenne (LOLPE)): 5 (5=80-100%)
percentage damage caused to the plant, LOLPE PRE (Lolium perenne (LOLPE)): 4 (4=60-79%)
percentage damage caused to the plant, SETFA POST (Setaria faberi (SETFA)): 5 (5=80-100%)
percentage damage caused to the plant, SETFA PRE (Setaria faberi (SETFA)): 5 (5=80-100%)

CC#Cc1cc(C)c(C2C(=O)CC3(CCC(C(=O)Nc4ccccn4)CC3)CC2=O)c(C)c1 (centres unmarked) [Compound 1.004]
percentage damage caused to the plant, ALOMY POST [1]: 4 (4=60-79%)
percentage damage caused to the plant, ALOMY PRE [1]: 3 (3=40-59%)
percentage damage caused to the plant, AVEFA POST (Avena fatua (AVEFA)): 5 (5=80-100%)
percentage damage caused to the plant, AVEFA PRE (Avena fatua (AVEFA)): 4 (4=60-79%)
percentage damage caused to the plant, ECHCG POST [2]: 4 (4=60-79%)
percentage damage caused to the plant, ECHCG PRE [2]: 5 (5=80-100%)
percentage damage caused to the plant, LOLPE POST (Lolium perenne (LOLPE)): 4 (4=60-79%)
percentage damage caused to the plant, LOLPE PRE (Lolium perenne (LOLPE)): 4 (4=60-79%)
percentage damage caused to the plant, SETFA POST (Setaria faberi (SETFA)): 4 (4=60-79%)
percentage damage caused to the plant, SETFA PRE (Setaria faberi (SETFA)): 5 (5=80-100%)

CC#Cc1cc(C)c(C2C(=O)CC3(CCC(C(=O)N4CCOCC4=O)CC3)CC2=O)c(C)c1 (centres unmarked) [Compound 1.005]
percentage damage caused to the plant, ALOMY POST [1]: 4 (4=60-79%)
percentage damage caused to the plant, ALOMY PRE [1]: 3 (3=40-59%)
percentage damage caused to the plant, AVEFA POST (Avena fatua (AVEFA)): 5 (5=80-100%)
percentage damage caused to the plant, AVEFA PRE (Avena fatua (AVEFA)): 4 (4=60-79%)
percentage damage caused to the plant, ECHCG POST [2]: 5 (5=80-100%)
percentage damage caused to the plant, ECHCG PRE [2]: 5 (5=80-100%)
percentage damage caused to the plant, LOLPE POST (Lolium perenne (LOLPE)): 5 (5=80-100%)
percentage damage caused to the plant, LOLPE PRE (Lolium perenne (LOLPE)): 5 (5=80-100%)
percentage damage caused to the plant, SETFA POST (Setaria faberi (SETFA)): 5 (5=80-100%)
percentage damage caused to the plant, SETFA PRE (Setaria faberi (SETFA)): 5 (5=80-100%)

CC#Cc1cc(C)c(C2C(=O)CC3(CCC(C(=O)N4CCS(=O)(=O)CC4)CC3)CC2=O)c(C)c1 (centres unmarked) [Compound 1.007]
percentage damage caused to the plant, ALOMY POST [1]: 5 (5=80-100%)
percentage damage caused to the plant, ALOMY PRE [1]: 3 (3=40-59%)
percentage damage caused to the plant, AVEFA POST (Avena fatua (AVEFA)): 5 (5=80-100%)
percentage damage caused to the plant, AVEFA PRE (Avena fatua (AVEFA)): 3 (3=40-59%)
percentage damage caused to the plant, ECHCG POST [2]: 5 (5=80-100%)
percentage damage caused to the plant, ECHCG PRE [2]: 5 (5=80-100%)
percentage damage caused to the plant, LOLPE POST (Lolium perenne (LOLPE)): 5 (5=80-100%)
percentage damage caused to the plant, LOLPE PRE (Lolium perenne (LOLPE)): 5 (5=80-100%)
percentage damage caused to the plant, SETFA POST (Setaria faberi (SETFA)): 5 (5=80-100%)
percentage damage caused to the plant, SETFA PRE (Setaria faberi (SETFA)): 4 (4=60-79%)

CC#Cc1cc(C)c(C2C(=O)CC3(CCC(C(=O)N4CCOCC4)CC3)CC2=O)c(C)c1 (centres unmarked) [Compound 1.008]
percentage damage caused to the plant, ALOMY POST [1]: 5 (5=80-100%)
percentage damage caused to the plant, ALOMY PRE [1]: 4 (4=60-79%)
percentage damage caused to the plant, AVEFA POST (Avena fatua (AVEFA)): 5 (5=80-100%)
percentage damage caused to the plant, AVEFA PRE (Avena fatua (AVEFA)): 3 (3=40-59%)
percentage damage caused to the plant, ECHCG POST [2]: 5 (5=80-100%)
percentage damage caused to the plant, ECHCG PRE [2]: 5 (5=80-100%)
percentage damage caused to the plant, LOLPE POST (Lolium perenne (LOLPE)): 5 (5=80-100%)
percentage damage caused to the plant, LOLPE PRE (Lolium perenne (LOLPE)): 5 (5=80-100%)
percentage damage caused to the plant, SETFA POST (Setaria faberi (SETFA)): 4 (4=60-79%)
percentage damage caused to the plant, SETFA PRE (Setaria faberi (SETFA)): 5 (5=80-100%)

CC#Cc1cc(C)c(C2C(=O)CC3(CCC(C(=O)N(C)CCO)CC3)CC2=O)c(C)c1 (centres unmarked) [Compound 1.009]
percentage damage caused to the plant, ALOMY POST [1]: 5 (5=80-100%)
percentage damage caused to the plant, ALOMY PRE [1]: 4 (4=60-79%)
percentage damage caused to the plant, AVEFA POST (Avena fatua (AVEFA)): 5 (5=80-100%)
percentage damage caused to the plant, AVEFA PRE (Avena fatua (AVEFA)): 3 (3=40-59%)
percentage damage caused to the plant, ECHCG POST [2]: 5 (5=80-100%)
percentage damage caused to the plant, ECHCG PRE [2]: 4 (4=60-79%)
percentage damage caused to the plant, LOLPE POST (Lolium perenne (LOLPE)): 5 (5=80-100%)
percentage damage caused to the plant, LOLPE PRE (Lolium perenne (LOLPE)): 5 (5=80-100%)
percentage damage caused to the plant, SETFA POST (Setaria faberi (SETFA)): 5 (5=80-100%)
percentage damage caused to the plant, SETFA PRE (Setaria faberi (SETFA)): 3 (3=40-59%)

CC#Cc1cc(C)c(C2C(=O)CC3(CCC(C(=O)NOC)CC3)CC2=O)c(C)c1 (centres unmarked) [Compound 1.010]
percentage damage caused to the plant, ALOMY POST [1]: 4 (4=60-79%)
percentage damage caused to the plant, ALOMY PRE [1]: 3 (3=40-59%)
percentage damage caused to the plant, AVEFA POST (Avena fatua (AVEFA)): 5 (5=80-100%)
percentage damage caused to the plant, AVEFA PRE (Avena fatua (AVEFA)): 3 (3=40-59%)
percentage damage caused to the plant, ECHCG POST [2]: 5 (5=80-100%)
percentage damage caused to the plant, ECHCG PRE [2]: 5 (5=80-100%)
percentage damage caused to the plant, LOLPE POST (Lolium perenne (LOLPE)): 5 (5=80-100%)
percentage damage caused to the plant, LOLPE PRE (Lolium perenne (LOLPE)): 5 (5=80-100%)
percentage damage caused to the plant, SETFA POST (Setaria faberi (SETFA)): 5 (5=80-100%)
percentage damage caused to the plant, SETFA PRE (Setaria faberi (SETFA)): 5 (5=80-100%)

CC#Cc1cc(C)c(C2C(=O)CC3(CCC(C(=O)NCCOC)CC3)CC2=O)c(C)c1 (centres unmarked) [Compound 1.011]
percentage damage caused to the plant, ALOMY POST [1]: 5 (5=80-100%)
percentage damage caused to the plant, ALOMY PRE [1]: 5 (5=80-100%)
percentage damage caused to the plant, AVEFA POST (Avena fatua (AVEFA)): 5 (5=80-100%)
percentage damage caused to the plant, AVEFA PRE (Avena fatua (AVEFA)): 5 (5=80-100%)
percentage damage caused to the plant, ECHCG POST [2]: 5 (5=80-100%)
percentage damage caused to the plant, ECHCG PRE [2]: 5 (5=80-100%)
percentage damage caused to the plant, LOLPE POST (Lolium perenne (LOLPE)): 5 (5=80-100%)
percentage damage caused to the plant, LOLPE PRE (Lolium perenne (LOLPE)): 5 (5=80-100%)
percentage damage caused to the plant, SETFA POST (Setaria faberi (SETFA)): 5 (5=80-100%)
percentage damage caused to the plant, SETFA PRE (Setaria faberi (SETFA)): 5 (5=80-100%)

CC#Cc1cc(C)c(C2C(=O)CC3(CCC(C(=O)NCCO)CC3)CC2=O)c(C)c1 (centres unmarked) [Compound 1.012]
percentage damage caused to the plant, ALOMY POST [1]: 4 (4=60-79%)
percentage damage caused to the plant, ALOMY PRE [1]: 4 (4=60-79%)
percentage damage caused to the plant, AVEFA POST (Avena fatua (AVEFA)): 4 (4=60-79%)
percentage damage caused to the plant, AVEFA PRE (Avena fatua (AVEFA)): 4 (4=60-79%)
percentage damage caused to the plant, ECHCG POST [2]: 5 (5=80-100%)
percentage damage caused to the plant, ECHCG PRE [2]: 4 (4=60-79%)
percentage damage caused to the plant, LOLPE POST (Lolium perenne (LOLPE)): 4 (4=60-79%)
percentage damage caused to the plant, LOLPE PRE (Lolium perenne (LOLPE)): 4 (4=60-79%)
percentage damage caused to the plant, SETFA POST (Setaria faberi (SETFA)): 5 (5=80-100%)
percentage damage caused to the plant, SETFA PRE (Setaria faberi (SETFA)): 4 (4=60-79%)
